Assay results taken from patent publication US9732094B2, “Arylquinazolines” (Merck Patent GmbH, priority 2013, dated 2017).
Read-outs that look alike come from different tables or passages of the source.

What was measured:
[1] = target: DNA-PK phosphorylation at serine 2056 (Homo sapiens (Human), UniProt P78527); assay: DNA-PK phosphorylation at serine 2056 (cellular), bleomycin-treated HCT116 cells, ELISA; format: cell-based; conditions: read-out: IC50 pDNA-PK
Procedure, shortened: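 HCT116 cells were treated with 10 μM bleomycin plus test compounds for six hours at 37 °C. Phospho-Ser2056 DNA-PK measured by chemiluminescent ELISA, normalised to total DNA-PKcs signal; DMSO control as blank.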

Kv11.1 (hERG) = Kv11.1 (hERG) (Homo sapiens (Human), UniProt Q12809); assay: Kv11.1 (hERG) ion channel activity (patch clamp assay), HEK293 cells transfected with hERG gene
Sequence of Kv11.1 (hERG) (Q12809 whole entry): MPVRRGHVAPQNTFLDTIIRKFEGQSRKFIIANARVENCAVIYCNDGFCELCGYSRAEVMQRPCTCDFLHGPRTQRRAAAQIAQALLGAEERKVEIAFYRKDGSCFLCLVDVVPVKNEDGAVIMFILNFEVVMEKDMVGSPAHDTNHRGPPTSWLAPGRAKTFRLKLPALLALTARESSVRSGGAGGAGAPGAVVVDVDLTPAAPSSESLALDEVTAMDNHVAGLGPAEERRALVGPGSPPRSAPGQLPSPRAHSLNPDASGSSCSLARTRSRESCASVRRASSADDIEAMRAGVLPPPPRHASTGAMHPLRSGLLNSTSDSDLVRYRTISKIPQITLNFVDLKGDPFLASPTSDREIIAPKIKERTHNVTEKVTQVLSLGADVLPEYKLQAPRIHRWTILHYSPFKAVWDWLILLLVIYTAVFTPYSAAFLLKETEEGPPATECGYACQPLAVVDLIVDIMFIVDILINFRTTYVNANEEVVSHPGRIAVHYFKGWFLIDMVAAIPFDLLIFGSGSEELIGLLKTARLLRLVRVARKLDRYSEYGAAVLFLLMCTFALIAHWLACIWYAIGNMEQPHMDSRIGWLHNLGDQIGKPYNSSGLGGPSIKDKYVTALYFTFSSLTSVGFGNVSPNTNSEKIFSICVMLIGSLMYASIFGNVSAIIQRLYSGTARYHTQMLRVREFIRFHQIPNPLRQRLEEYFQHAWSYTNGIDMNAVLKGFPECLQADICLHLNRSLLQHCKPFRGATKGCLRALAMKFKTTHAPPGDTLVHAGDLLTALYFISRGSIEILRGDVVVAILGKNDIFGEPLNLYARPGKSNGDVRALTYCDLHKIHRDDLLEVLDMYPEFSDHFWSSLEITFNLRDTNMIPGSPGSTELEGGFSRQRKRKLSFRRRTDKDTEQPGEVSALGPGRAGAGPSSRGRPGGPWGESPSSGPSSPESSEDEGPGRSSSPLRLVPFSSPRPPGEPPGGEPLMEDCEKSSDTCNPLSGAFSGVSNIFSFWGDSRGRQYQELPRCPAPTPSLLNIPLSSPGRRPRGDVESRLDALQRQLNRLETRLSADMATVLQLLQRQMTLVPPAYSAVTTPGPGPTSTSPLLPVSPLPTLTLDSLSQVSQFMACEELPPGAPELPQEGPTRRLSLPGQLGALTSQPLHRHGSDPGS

DNA-PK = DNA-PK (Homo sapiens (Human), UniProt P78527); assay: DNA-PK assay (biochemical), flashplate 33P-ATP kinase assay
Procedure, shortened: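 Reactions ran in streptavidin-coated flashplates and were halted by 200 mM EDTA, with a further 30 min at room temperature before saline washing.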

[2] = cellular, HCT116 cells, 10 μM bleomycin, six hours
[3] = Ki [Kv1.11 hERG], patch clamp, HEK293 transfected with hERG gene
[4] = cellular DNA-PK phosphorylation at serine 2056, HCT116
[5] = Ki [Kv1.11 hERG], hERG patch clamp assay (cells without asterisk)
[6] = read-out: Ki [Kv1.11 hERG], hERG patch clamp assay (cells without asterisk)
[7] = read-out: Ki [Kv1.11 hERG], Table 5
[8] = read-out: Ki [Kv1.11 hERG], patch clamp, HEK293 transfected with hERG gene

Compound | IC50 [1, 2] [µM] | IC50 (DNA-PK; enzymatic, 5 μM ATP) [µM] | IC50 [1, 4] [µM] | IC50 (DNA-PK; biochemical DNA-PK assay) [µM] | Ki (Kv11.1 (hERG); [6]) [µM] | also measured
COc1cnc(C(O)c2ccc(F)c(-c3ncnc4cc(N5CCOCC5)ccc34)c2)c(Cl)c1 (stereo not drawn) [Example 31, (3-Chloro-5-methoxy-pyridin-2-yl)-[4-fluoro-3-(7-morpholin-4-yl-quinazolin-4-yl)phenyl]-methanol] | < 0.5 | < 0.003 |  |  |  | Ki (Kv11.1 (hERG); [3]): 10 to 15 µM
Cc1nc([C@H](O)c2cnc(F)c(-c3ncnc4cc(N5CCOCC5)ncc34)c2)sc1C [Example 204, (R)-(4,5-Dimethyl-thiazol-2-yl)-[6-fluoro-5-(7-morpholin-4-yl-pyrido[4,3-d}-pyrimidin-4-yl)-pyridin-3-yl]-methanol] |  |  |  |  |  | IC50 ([1]; Table 5, HCT116 cells): 10 to 30 µM; Ki (Kv11.1 (hERG); Ki [Kv1.11 hERG], Table 5): 10 to 15 µM; IC50 (DNA-PK; Table 5): > 0.03 µM
OC(c1cccnn1)c1cc(-c2ncnc3cc(N4CCOCC4)ccc23)c(F)cc1Cl (single isomer, unassigned) [Example 29, [2-Chloro-4-fluoro-5-(7-morpholin-4-yl-quinazolin-4-yl)phenyl]-pyridazin-3-ylmethanol] | 10 to 30 | 0.007 to 0.03 |  |  |  | Ki (Kv11.1 (hERG); human, HEK293 cells stably transfected with the hERG gene, Ki [Kv1.11 hERG], patch clamp, HEK293 transfected with hERG gene): 15 to 25 µM
COc1nccnc1C(O)c1cc(-c2ncnc3cc(N4CCOCC4)cnc23)c(F)cc1Cl (stereo not drawn) [Example 232, [2-Chloro-4-fluoro-5-(7-morpholin-4-yl-pyrido[3,2-d}-pyrimidin-4-yl)-phenyl]-(3-methoxy-pyrazin-2-yl)-methanol] |  |  | 10 to 30 | 0.007 to 0.03 | > 25 | 
OC(c1ccc(F)c(-c2ncnc3cc(N4CCOCC4)ccc23)c1)c1nccnc1OC1COC1 (stereo not drawn) [Example 32, [4-fluoro-3-(7-morpholin-4-yl-quinazolin-4-yl)phenyl]-[3-(oxetan-3-yloxy)-pyrazin-2-yl]methanol] | 5 to 10 | 0.007 to 0.03 |  |  |  | Ki (Kv11.1 (hERG); [3]): 15 to 25 µM
OC(c1cccc(-c2ncnc3cc(N4CCOCC4)ccc23)c1)(c1nccs1)C(F)(F)F (stereo not drawn) [Example 173, 2,2,2-Trifluoro-1-[3-(7-morpholin-4-yl-quinazolin-4-yl)-phenyl)-1-thiazol-2-ylethanol] |  |  |  |  |  | IC50 ([1]; Table 5, HCT116 cells): 5 to 10 µM; Ki (Kv11.1 (hERG); [7]): < 10 µM; IC50 (DNA-PK; Table 5): < 0.003 µM
COc1ccc(C(O)c2cc(-c3ncnc4cc(N5CCOCC5)cnc34)c(F)cc2Cl)nn1 (stereo not drawn) [Example 228, [2-Chloro-4-fluoro-5-(7-morpholin-4-yl-pyrido[3,2-d}-pyrimidin-4-yl)-phenyl]-(6-methoxy-pyridazin-3-yl)-methanol] |  |  | 10 to 30 | > 0.03 | > 25 | 
COc1cnc(C(O)c2ccc(F)c(-c3ncnc4cc(N5CCOCC5)ccc34)c2)nc1 (stereo not drawn) [Example 66, [4-Fluoro-3-(7-morpholin-4-yl-quinazolin-4-yl)phenyl]-(5-methoxypyrimidin-2-yl)methanol] | 10 to 30 | 0.007 to 0.03 |  |  |  | Ki (Kv11.1 (hERG); [8]): > 25 µM
NC(=O)c1cncc(C(C(N)=O)c2ccc(F)c(-c3ncnc4cc(N5CCOCC5)ccc34)c2)n1 (stereo not drawn) [Example 292, 6-{Carbamoyl-[4-fluoro-3-(7-morpholin-4-yl-quinazolin-4-yl)-phenyl]methyl}-pyrazine-2-carboxylic acid amide] |  |  | 10 to 30 | 0.007 to 0.03 | > 25 | 
OC(c1ccc2nccn2n1)c1cc(-c2ncnc3cc(N4CCOCC4)ccc23)c(F)cc1F (single isomer, unassigned) [Example 21, [2,4-Difluoro-5-(7-morpholin-4-yl-quinazolin-4-yl)phenyl]-imidazo[1,2-b]pyridazin-6-ylmethanol] | < 0.5 | < 0.003 |  |  |  | Ki (Kv11.1 (hERG); [8]): > 25 µM
C#CC(O)(c1ccc(OC)nn1)c1cc(-c2ncnc3cc(N4CCOCC4)ccc23)c(F)cc1Cl (stereo not drawn) [Example 122, 1-[2-Chloro-4-fluoro-5-(7-morpholin-4-yl-quinazolin-4-yl)-phenyl]-1-(6-methoxy-pyridazin-3-yl)-prop-2-yn-1-ol] | 0.5 to 5 | 0.007 to 0.03 |  |  |  | Ki (Kv11.1 (hERG); [3]): 10 to 15 µM
NC(=O)C(c1cccnc1)c1cc(-c2ncnc3cc(N4CCOCC4)ccc23)c(F)cc1F (stereo not drawn) [Example 294, 2-[2,4-Difluoro-5-(7-morpholin-4-yl-quinazolin-4-yl)-phenyl]-2-pyridin-3-ylacetamide] |  |  | 10 to 30 | 0.003 to 0.007 | > 25 | 
CCn1cc(C(O)c2cc(-c3ncnc4cc(N5CCOCC5)ccc34)c(F)cc2Cl)cn1 (stereo not drawn) [Example 202, [2-Chloro-4-fluoro-5-(7-morpholin-4-ylquinazolin-4-yl)-phenyl]-(1-ethyl-1H-pyrazol-4-yl)-methanol] |  |  |  |  |  | IC50 ([1]; Table 5, HCT116 cells): 0.5 to 5 µM; Ki (Kv11.1 (hERG); Ki [Kv1.11 hERG], Table 5): 15 to 25 µM; IC50 (DNA-PK; Table 5): 0.007 to 0.03 µM
COc1cc(C)c(C(O)c2cc(-c3ncnc4cc(N5CCOCC5)ccc34)c(F)cc2Cl)nn1 (stereo not drawn) [Example 109, [2-Chloro-4-fluoro-5-(7-morpholin-4-yl-quinazolin-4-yl)-phenyl]-(6-methoxy-4-methylpyridazin-3-yl)methanol] | 5 to 10 | > 0.03 |  |  |  | Ki (Kv11.1 (hERG); [8]): > 25 µM
OC(c1ccc(F)c(-c2ncnc3cc(N4CCOCC4)ccc23)c1)c1nccs1 (stereo not drawn) [Example 211, [4-Fluoro-3-(7-morpholin-4-yl-quinazolin-4-yl)-phenyl]thiazol-2-ylmethanol] | 0.5 to 5 | 0.003 to 0.007 |  |  |  | Ki (Kv11.1 (hERG); [8]): > 25 µM
Cc1nccnc1[C@H](O)c1ccc(F)c(-c2ncnc3cc(N4CCOCC4)ccc23)c1 [Example 83, (R)-[4-Fluoro-3-(7-morpholin-4-yl-quinazolin-4-yl)-phenyl]-(3-methyl-pyrazin-2-yl)methanol] | < 0.5 | < 0.003 |  |  |  | Ki (Kv11.1 (hERG); [8]): > 25 µM
Cc1csc(C(O)c2cc(-c3ncnc4cc(N5CCOCC5)ccc34)c(F)cc2Cl)n1 (stereo not drawn) [Example 181, [2-Chloro-4-fluoro-5-(7-morpholin-4-yl-quinazolin-4-yl)-phenyl]-(4-methyl-thiazol-2-yl)-methanol] |  |  |  |  |  | IC50 ([1]; Table 5, HCT116 cells): 0.5 to 5 µM; Ki (Kv11.1 (hERG); [7]): < 10 µM; IC50 (DNA-PK; Table 5): < 0.003 µM
OC(c1ccc(Cl)nn1)c1cc(-c2ncnc3cc(N4CCOCC4)ccc23)c(F)cc1Cl (stereo not drawn) [Example 41, [2-Chloro-4-fluoro-5-(7-morpholin-4-yl-quinazolin-4-yl)phenyl]-(6-chloro-pyridazin-3-yl)methanol] | < 0.5 | 0.003 to 0.007 |  |  |  | Ki (Kv11.1 (hERG); [3]): 15 to 25 µM

The next lines start with results.

IC50 [1, 2] [µM] | IC50 (DNA-PK; enzymatic, 5 μM ATP) [µM] | IC50 [1, 4] [µM] | IC50 (DNA-PK; biochemical DNA-PK assay) [µM] | Compound | Ki (Kv11.1 (hERG); [6]) [µM] | also measured
 |  | < 0.5 | < 0.003 | OC(c1cc(-c2ncnc3cc(N4CCOCC4)ccc23)c(F)cc1Cl)c1ncnc2ccoc12 (stereo not drawn) [Example 452, [2-Chloro-4-fluoro-5-(7-morpholin-4-yl-quinazolin-4-yl)-phenyl]furo[3,2-d}-pyrimidin-4-yl-methanol] |  | Ki (Kv11.1 (hERG); [5]): 10 to 15 µM
 |  | 5 to 10 | 0.007 to 0.03 | Cc1cncc(C(O)c2ccc(F)c(-c3ncnc4cc(N5CCOCC5)ccc34)c2)n1 (stereo not drawn) [Example 296, [4-Floro-3-(7-morpholin-4-yl-quinazolin-4-yl)-phenyl]-(6-methyl-pyrazin-2-yl)-methanol] | > 25 | 
 |  | 0.5 to 5 | 0.007 to 0.03 | Cc1cnc(C(C(N)=O)c2cc(-c3ncnc4cc(N5CCOCC5)ccc34)c(F)cc2Cl)c(C)n1 (stereo not drawn) [Example 301, 2-[2-Chloro-4-fluoro-5-(7-morpholin-4-yl-quinazolin-4-yl)-phenyl]-2-(3,5-dimethyl-pyrazin-2-yl)acetamide] | > 25 | 
 |  | 5 to 10 | 0.007 to 0.03 | Cc1nccnc1/C(C(=O)O)=C1/C=CC(=O)C(c2ncnc3cc(N4CCOCC4)ccc23)=C1 [Example 331, (3-methyl-pyrazin-2-yl)-[3-(7-morpholin-4-ylquinazolin-4-yl)-4-oxocyclohexa-2,5-dien-(E)-ylidene]-acetic acid] | > 25 | 
 |  | 0.5 to 5 | 0.003 to 0.007 | Cn1cnc2c(C(O)c3cc(-c4ncnc5cc(N6CCOCC6)ccc45)c(F)cc3F)ncnc21 (stereo not drawn) [Example 347, [2,4-Difluoro-5-(7-morpholin-4-yl-quinazolin-4-yl)-phenyl]-(9-methyl-9H-purin-6-yl)-methanol] | > 25 | 
 |  | 10 to 30 | > 0.03 | Cn1nc(C(C(N)=O)c2ccc(F)c(-c3ncnc4cc(N5CCOCC5)ccc34)c2)ccc1=O (stereo not drawn) [Example 317, 2-[4-Fluoro-3-(7-morpholin-4-yl-quinazolin-4-yl)-phenyl]-2-(1-methyl-6-oxo-1,6-dihydro-pyridazin-3-yl)-acetamide] |  | Ki (Kv11.1 (hERG); [5]): 15 to 25 µM
 |  | 5 to 10 | 0.007 to 0.03 | COc1nccnc1C(C(N)=O)c1cc(-c2ncnc3cc(N4CCOCC4)ccc23)c(F)cc1F (stereo not drawn) [Example 319, 2-[2,4-Difluoro-5-(7-morpholin-4-ylquinazolin-4-yl)phenyl]-2-(3-methoxypyrazin-2-yl)acetamide] | > 25 | 
 |  | 0.5 to 5 | 0.003 to 0.007 | Cn1ncc2c(C(O)c3cc(-c4ncnc5cc(N6CCOCC6)ccc45)c(F)cc3Cl)ncnc21 (stereo not drawn) [Example 402, [2-Chloro-4-fluoro-5-(7-morpholin-4-yl-quinazolin-4-yl)-phenyl]-(1-methyl-1H-pyrazolo[3,4-d}-pyrimidin-4-yl)-methanol] |  | Ki (Kv11.1 (hERG); [5]): 15 to 25 µM
 |  | < 0.5 | < 0.003 | OC(c1ccc(F)c(-c2ncnc3cc(N4CCOCC4)ccc23)c1)c1ncnc2ccoc12 (stereo not drawn) [Example 442, [4-Fluoro-3-(7-morpholin-4-yl-quinazolin-4-yl)-phenyl]furo[3,2-d}-pyrimidin-4-yl-methanol] | > 25 | 
